# Values of other authors, collected in patent publication US11918653B2, “Triglyceride otic formulations and uses thereof” (DOMPÉ FARMACEUTICI S.P.A., priority 2017, dated 2024).
# pIC50: −log10 of the molar value.
# How the values were obtained:
# [1] = tested on: Meniere's disease symptoms; conditions: infusion into the scala tympani
# [2] = target: constitutively activated D136A mutant VP2 receptor (Homo sapiens, UniProt P30518, D136A)
# [3] = after topical application
# [4] = tested on: mouse collagen-induced arthritis model; conditions: 30 mg/kg dose
# [5] = tested on: TNF-α production in the LPS-induced human PBMC cells; conditions: read-out: IC50 for inhibiting TNF-α production
# tinnitus = conditions: administered by IV
# [6] = tested on: TNF-α production in the LPS-induced MonoMac-6 cells; conditions: read-out: IC50 for inhibiting TNF-α production
# [7] = in vivo
# TNF-α = conditions: LPS-challenged mice
# rat arthritis model = conditions: 30 mg/kg
# lymphotoxin (TNF-β) = target: T1, lymphotoxin (TNF-β) (Homo sapiens, UniProt P01374)
# T1 sequence (P01374 35-205): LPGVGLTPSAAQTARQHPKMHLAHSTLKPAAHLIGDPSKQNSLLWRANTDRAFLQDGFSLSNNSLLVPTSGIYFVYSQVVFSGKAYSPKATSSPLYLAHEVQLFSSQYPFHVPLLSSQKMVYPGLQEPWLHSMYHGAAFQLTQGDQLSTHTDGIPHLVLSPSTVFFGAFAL
molecule,measurement,setting,value
"Cc1ccccc1C(=O)Nc1ccc(C(=O)N2CCCC(N(C)C)c3ccccc32)cc1.Cl (racemic) [OPC-31260, (±)-5-dimethylamino-1-(4-[2-methylbenzoylamino]benzoyl)-2,3,4,5-tetrahydro-1H-benzazepin hydrochloride]",Meniere's disease symptoms,[1],marked reduction of Meniere's disease symptoms
same,behaviour at D136A mutant VP2 receptor,[2],inverse agonist
"C=CC[C@@H]1/C=C(\C)C[C@H](C)C[C@H](OC)[C@H]2O[C@@](O)(C(=O)C(=O)N3CCCC[C@H]3C(=O)O[C@H](/C(C)=C/[C@@H]3CC[C@@H](O)[C@H](OC)C3)[C@H](C)[C@@H](O)CC1=O)[C@H](C)C[C@@H]2OC (relative stereo) [tacrolimus, [3S-[3R*[E(1S*,3S*,4S*)], 4S*,5R*,8S*,9E,12R*,14R*,15S*,16R*,18S*,19S*,26aR*]]-5,6,8,11,12,13,14,15,16,17,18,19,24,25,26,26a-hexadecahydro-5,19-dihydroxy-3-[2-(4-hydroxy-3-methoxycyclohexyl)-1-methylethenyl]-14,16-dimethoxy-4,10,12,18-tetramethyl-8-(2-propenyl)-15,19-epoxy-3H-pyrido[2,1-39c][1,4]oxaazacyclotricosine-1,7,20,21(4H,23H)-tetrone monohydrate]",bioavailability,[3],less than 0.5%
Cc1ccc2nc(NCCN)c3ncc(C)n3c2c1 [BMS-345541],severity of disease,[4],significantly reduced the severity of disease
CC[C@H](C)[C@H](NC(=O)[C@H](CC(C)C)[C@H](C(C)C)N(O)C=O)C(=O)Nc1ccccn1 [GW3333],pIC50,[5],6.01
CCN(CC)CC(=O)Nc1c(C)cccc1C [Lidocaine],sufferers in whom noise associated with tinnitus is reduced or eliminated,tinnitus,60-80%
CC(C)C[C@@H](C(=O)N[C@@H](CCCN/C(N)=N/[N+](=O)[O-])C(=O)Nc1nccs1)[C@H](C(C)C)N(O)C=O [Nitroarginine analog A],pIC50,[6],7.47
same,oral activity,[7],lacks oral activity
O=C(Nc1cc(Cl)cc2c1[nH]c1cnccc12)c1cccnc1 [PS-1145],production of TNF-α,TNF-α,reduces the production of TNF-α
COc1cccc2nc(-c3cccs3)nc(NN3C(=O)C=C(C)C3=O)c12 [SPC-839],paw edema,rat arthritis model,reduces paw edema
"CCOc1ccc2c(c1)C1(CCC(OCCN3CCOCC3)CC1)C(=O)N2S(=O)(=O)c1ccc(C(=O)NC(C)(C)C)cc1OC.O=C(O)/C=C/C(=O)O (centres unmarked) [SR-1211463, 1-(4-(N-tert-butylcarbamoyl)-2-methoxybenzenesulfonyl)-5-ethoxy-3-spiro-(4-(2-morpholinoethoxy)cyclohexane)indol-2-one fumarate]",behaviour at D136A mutant VP2 receptor,[2],inverse agonist
Adalimumab,binding or inactivation of lymphotoxin (TNF-β),lymphotoxin (TNF-β),does not bind or inactivate
same,"patients developing injection site reactions (erythema and/or itching, hemorrhage, pain and/or swelling)",systemic administration,20%
etanercept,patients experiencing injection site reactions,systemically treated,over one-third of patients
